Experimental data as given in patent US11466020B2, “Compounds and compositions for inhibition and elimination of Zika infection and uses for same” (Cornell University, priority 2017, dated 2022).
Where a name gives a salt, the structure may show the parent alone.

Tested on: ZIKV MR766
Assay: Inhibition of ZIKV infection of hNPCs (high content screen / inhibitory curve, ZIKV E staining)
Format: cell-based, Zika virus
Conditions: for ZIKV infection of hNPCs compared to DMSO controls: 72 h after ZIKV (MR766) infection; for IC50: Zika virus, hNPCs, ZIKV MR766 MOI=0.125, compound added before infection, infection rate (ZIKV E+ cells), read-out: IC50 values of anti-ZIKV activity
Method: A high content chemical screen identifies compounds that inhibit ZIKV infection of hNPCs. To identify drugs that inhibit ZIKV infection, we screened the Prestwick library that includes 1120 FDA-approved drug and drug candidates, selected for known bioavailability and safety in humans. To perform the screen, hNPCs seeded in 384-well plates were treated with each compound from the library or vehicle control (DMSO) for 1 hour, followed by addition of ZIKV MR766 at a MOI=0.125. After two hour of inoculation with ZIKV, the virus-containing medium was replaced by fresh virus-free medium and compounds were replenished for each well (See Methods). After an additional three days of culture, cells were fixed and stained with antibodies against the ZIKV envelop protein (ZIKV E) and a cell proliferation marker Ki67 (FIG. 1A). The percentages of ZIKV E^+ cells, Ki67^+ cells and total cell number were quantified by an automated imaging and analysis system. A two dimensional analysis was performed to choose the primary hit compounds (FIG. 5A). The X-axis represents the fold change of total cell number, which was calculated by dividing the total cell number of the chemical-treated well by the average total cell number of DMSO-treated wells. The Y-axis represents the fold change of the percentage of ZIKV infected cells, which was calculated by dividing the percentage of cells expressing ZIKV E in each chemical-treated well by the average of the percentage of cells expressing ZIKV E from DMSO-treated wells. […] Based on the fold change of the percentage of ZIKV infection, the signal-to-basal (S/B) ratio is 4.2 and the coefficient of variation (CV) is 6.9%. The Z factor is 0.59 indicating a robust screening system.
hNPCs were plated on 96-well plates at 8.5×10^4/cm^2. After overnight incubation, hNPCs were infected with ZIKV (MR766 strain, MOI=0.125) for 2 h, and changed to virus-free medium. The cells were maintained in NPC medium with daily medium change. Three days later, the supernatant and cells were collected and used for assays. hESC-derived forebrain organoids were infected with ZIKV MR766 (5×10^5 PFU/ml) for 24 h. After removal of virus containing medium, forebrain organoids were maintained in forebrain organoid medium for an additional 3 or 17 days and then used for assays.
High-content Screen. hNPCs were dissociated and plated on Matrigel-coated 384-well plates for the chemical screen. […] DMSO was used as a negative control. ZIKV MR766 was added at MOI=0.125. After 2 hour infection, the supernatant was replaced with fresh medium and compounds from the same chemical library were added to the same wells. After an additional 3 days incubation, cells were fixed, stained with antibodies against ZIKV envelop protein (ZIKV E) and proliferation marker Ki67, and analyzed with the ImageXpress^MICRO Automated High-Content Analysis System. […] X-axis represents the fold change of total cell number, which was calculated by dividing the total cell number of the chemical treated well by the average of total cell number of DMSO treated wells. Y-axis represents the fold change of the percentage of ZIKV infection, which was calculated by dividing the percentage of ZIKV infection of the chemical treated well by the average of the percentage of ZIKV infection of DMSO treated wells. The compounds in which the fold change of total cell number >1 and the fold change of the percentage of ZIKV infection <20% were further evaluated. […]

For `CN1CCC2=C[C@H](O)[C@H]3OC(=O)c4cc5c(cc4[C@H]3[C@@H]21)OCO5` [HH, hippeastrine hydrobromide], the “ZIKV infection of hNPCs compared to DMSO controls” value was “effectively inhibited ZIKV infection” and the IC50 was 5.5 µM.

For `CCN(CC)Cc1cc(Nc2ccnc3cc(Cl)ccc23)ccc1O` [AQ, amodiaquine dihydrochloride dihydrate], the “ZIKV infection of hNPCs compared to DMSO controls” value was “effectively inhibited ZIKV infection” and the IC50 was 6 µM.
